Results as given in patent US20090117205A1, “Quinolone-containing medicinal composition” (Daiichi Pharmaceutical CO., LTD, priority 2004, published 2009).
≈ marks a conversion by molar mass, not a printed value. Like-named read-outs stand apart in the source and are kept apart here.

What was measured:
Format in all cases: physicochemical
[1] = Evaluation of the concentration of the drug solution used for the lyophilization (cake formation)
[2] = Stability test of the lyophilized product produced from drug solution of different pH
Source text: Lyophilized products were produced from the drug solution of different pH according to the evaluation of pH of the drug solution used for the lyophilization (1) to evaluate the stability of the Compound (1).

[3] = Solubility of Compound (1) in water with change in pH
Procedure: Change in solubility with the change in pH of the drug solution of the Compound (1) was measured by the method commonly used in the art.

[4] = lyophilized product from drug solution pH 2.5, 60° C., 1 W
[5] = lyophilized product from drug solution pH 2.5, 60° C., 2 W
[6] = lyophilized product from drug solution pH 2.5, Initial
[7] = lyophilized product from drug solution pH 3.5, 60° C., 1 W
[8] = lyophilized product from drug solution pH 3.5, 60° C., 2 W
[9] = lyophilized product from drug solution pH 3.5, Initial
[10] = lyophilized product from drug solution pH 4.5, 60° C., 1 W
[11] = lyophilized product from drug solution pH 4.5, 60° C., 2 W
[12] = lyophilized product from drug solution pH 4.5, Initial

For `COc1c(N2CC[C@@H](C3(N)CC3)C2)ccc2c(=O)c(C(=O)O)cn([C@@H]3C[C@@H]3F)c12` [Compound (1), 7-[3-(R)-(1-aminocyclopropyl)pyrrolidine-1-yl]-1-[2-(S)-fluoro-1-(R)-cyclopropyl]-1,4-dihydro-8-methoxy-4-oxoquinoline-3-carboxylic acid], the “Cake formation (number of vials with cake formation/number of vials tested)” value ([1]; drug solution 1.25 mg/mL) was 0/5, the “Cake formation (number of vials with cake formation/number of vials tested)” value ([1]; drug solution 2.5 mg/mL) was 4/5 and the “Cake formation (number of vials with cake formation/number of vials tested)” value ([1]; drug solution 5 mg/mL) was 4/5. The “Cake formation (number of vials with cake formation/number of vials tested)” value ([1]; drug solution 10 mg/mL) was 5/5, the “Cake formation (number of vials with cake formation/number of vials tested)” value ([1]; drug solution 15 mg/mL) was 5/5 and the “Cake formation (number of vials with cake formation/number of vials tested)” value ([1]; drug solution 20 mg/mL) was 5/5. For the same compound, the “Stability of the Compound (1) in the lyophilized products” value ([2]; drug solution at a pH in the range of 2.5 to 4.5) was “sufficient stability”, the Appearance [2, 4] was “Yellow” and the “Content in relation to Initial amount (%)” value [2, 4] was 100.8%. The “Content in relation to Nominal amount (%)” value [2, 4] was 96.0%, the “Total amount of related substance (%)” value [2, 4] was 0.95% and the pH [2, 4] was 2.97. For the same compound, the Appearance [2, 5] was “Yellow”, the “Content in relation to Initial amount (%)” value [2, 5] was 96.5% and the “Content in relation to Nominal amount (%)” value [2, 5] was 91.9%. For the same compound, the “Total amount of related substance (%)” value [2, 5] was 1.10%, the pH [2, 5] was 3.05 and the Appearance [2, 6] was “Yellow”. The “Content in relation to Initial amount (%)” value [2, 6] was 100.0%, the “Content in relation to Nominal amount (%)” value [2, 6] was 95.3% and the “Total amount of related substance (%)” value [2, 6] was 0.92%. The pH [2, 6] was 2.89, the Appearance [2, 7] was “Yellow” and the “Content in relation to Initial amount (%)” value [2, 7] was 99.4%. The “Content in relation to Nominal amount (%)” value [2, 7] was 96.0%, the “Total amount of related substance (%)” value [2, 7] was 0.96% and the pH [2, 7] was 3.81. For the same compound, the Appearance [2, 8] was “Yellow”, the “Content in relation to Initial amount (%)” value [2, 8] was 99.7% and the “Content in relation to Nominal amount (%)” value [2, 8] was 96.2%. The “Total amount of related substance (%)” value [2, 8] was 1.17%, the pH [2, 8] was 3.86 and the Appearance [2, 9] was “Yellow”. The “Content in relation to Initial amount (%)” value [2, 9] was 100.0%, the “Content in relation to Nominal amount (%)” value [2, 9] was 96.5% and the “Total amount of related substance (%)” value [2, 9] was 0.93%. The pH [2, 9] was 3.73, the Appearance [2, 10] was “Yellow” and the “Content in relation to Initial amount (%)” value [2, 10] was 97.8%. For the same compound, the “Content in relation to Nominal amount (%)” value [2, 10] was 91.1%, the “Total amount of related substance (%)” value [2, 10] was 1.13% and the pH [2, 10] was 4.51. The Appearance [2, 11] was “Yellow”, the “Content in relation to Initial amount (%)” value [2, 11] was 100.5% and the “Content in relation to Nominal amount (%)” value [2, 11] was 93.5%. For the same compound, the “Total amount of related substance (%)” value [2, 11] was 1.31%, the pH [2, 11] was 4.53 and the Appearance [2, 12] was “Yellow”. For the same compound, the “Content in relation to Initial amount (%)” value [2, 12] was 100.0%, the “Content in relation to Nominal amount (%)” value [2, 12] was 93.1% and the “Total amount of related substance (%)” value [2, 12] was 0.93%. The pH [2, 12] was 4.47, the solubility at 1 week ([3]; aqueous buffer, 5° C., pH 3.5, after 1 W) was ≤ 19.6 mg/mL and the solubility at 0 week ([3]; aqueous buffer, 5° C., pH 3.5, immediately after preparation) was ≤ 20.1 mg/mL. For the same compound, the solubility at 1 week ([3]; aqueous buffer, 5° C., pH 4.0, after 1 W) was 19 mg/mL (≈ 47.3 mM), the solubility at 0 week ([3]; aqueous buffer, 5° C., pH 4.0, immediately after preparation) was ≤ 20.1 mg/mL and the solubility at 1 week ([3]; aqueous buffer, 5° C., pH 4.5, after 1 W) was 18.8 mg/mL (≈ 46.8 mM). For the same compound, the solubility at 0 week ([3]; aqueous buffer, 5° C., pH 4.5, immediately after preparation) was ≤ 20 mg/mL, the solubility at 1 week ([3]; aqueous buffer, 5° C., pH 5.0, after 1 W) was 18.4 mg/mL (≈ 45.8 mM) and the solubility at 1 week ([3]; aqueous buffer, 5° C., pH 5.5, after 1 W) was 5.4 mg/mL (≈ 13.5 mM). The solubility at 1 week ([3]; aqueous buffer, 5° C., pH 6.0, after 1 W) was 0.7 mg/mL (≈ 1.74 mM), the solubility at 1 week ([3]; aqueous buffer, 25° C., pH 3.5, after 1 W) was ≤ 20.1 mg/mL and the solubility at 0 week ([3]; aqueous buffer, 25° C., pH 3.5, immediately after preparation) was ≤ 20.1 mg/mL. For the same compound, the solubility at 1 week ([3]; aqueous buffer, 25° C., pH 4.0, after 1 W) was 19.6 mg/mL (≈ 48.8 mM), the solubility at 0 week ([3]; aqueous buffer, 25° C., pH 4.0, immediately after preparation) was ≤ 20.1 mg/mL and the solubility at 1 week ([3]; aqueous buffer, 25° C., pH 4.5, after 1 W) was 20.1 mg/mL (≈ 50.1 mM). For the same compound, the solubility at 0 week ([3]; aqueous buffer, 25° C., pH 4.5, immediately after preparation) was ≤ 20.1 mg/mL, the solubility at 1 week ([3]; aqueous buffer, 25° C., pH 5.0, after 1 W) was 18.7 mg/mL (≈ 46.6 mM) and the solubility at 1 week ([3]; aqueous buffer, 25° C., pH 5.5, after 1 W) was 4.8 mg/mL (≈ 12 mM). The solubility at 1 week ([3]; aqueous buffer, 25° C., pH 6.0, after 1 W) was 0.7 mg/mL (≈ 1.74 mM), the solubility ([3]; aqueous buffer, pH up to pH 5, read-out: Concentration that can be attained in the solution) was ≥ 10 mg/mL and the solubility ([3]; pH 4.5, aqueous buffer, pH up to 4.5, read-out: Concentration that can be attained in the solution) was ≥ 20 mg/mL.
